Results: patent US10905762B2, “Targeted nanoparticle conjugates” (CASE WESTERN RESERVE UNIVERSITY, priority 2011, dated 2021)

Columns and labels:
[1] = target: EGFR (Homo sapiens, UniProt P00533); conditions: binding to the EGFR; read-out: dissociation constant; cited from earlier work
[2] = tested on: 9L.E29 cells; experiment: Cell viability assay using Trypan blue; type: cell-based, rat; conditions: 1 μM of Pc 4 and 1 J/cm^2 of laser power
Source text: Cell viability assays using Trypan blue for EGFpep-Au NP-Pc 4 treated cells further illustrated this point (FIG. 4C), showing not only an increase in the number of dead cancer cells, but possibly different pathways of cell death.

[3] = tested on: 9L.E29 cells; conditions: free Pc 4, stated as known; cited from earlier work
[4] = tested on: glioma cancer cells; conditions: stated as known; cited from earlier work

| Substance | Kd [1] [nM] | mode of cell death (Trypan blue staining) [2] | subcellular localization of Pc 4 (known) [3] | localization of free Pc 4 (known) [4] |
| --- | --- | --- | --- | --- |
| YHWYGYTPQNVI [EGF peptide, YHWYGYTPQNVI-amide] | 22 |  |  |  |
| phthalocyanine 4 [free Pc 4] |  | caused most cancer cells to die very quickly | localize mainly in mitochondria with some additional localization within lysosomes | known to locate in the mitochondria |
